# From patent publication US20110046067A1, “COMPOSITIONS COMPRISING HUMAN EGFR-siRNA AND METHODS OF USE” (Intradigm Corporation, priority 2007, published 2011)
# “Also recorded” adds a separate entry of the source.
# System: hEGFR
# Assay: hEGFR dose titration in HT-29 cells (electroporation, hEGFR ELISA)
# Type: cell-based, human
# Settings: 0.01-10 ug siRNA per 2×10^6 cells/200 μl, 48 hours post transfection
# Protocol: The selected hEGFR-siRNA, hEGFR-25-1 and hEGFR-25-2, were tested for their capability of inhibiting hEGFR expression in a dose-dependent manner. The HT-29 cells were transfected with the EGFR-siRNAs in a range of 0.01-10 ug siRNA per 2×10^6 cells/200 μl using an electroporation mediated transfection method. The concentration of EGFR protein in the transfected HT-29 cells was measured at 48 hours post transfection using a hEGFR ELISA kit (R&D Systems, Inc.). The concentration of hEGFR protein was normalized against total cellular protein and the percentage of hEGFR inhibition was normalized against cells treated with a mock process without siRNA.
# Two siRNA candidates, hEGFR-25-1 and hEGFR-25-2, were further tested for activity in a dose titration experiment.
row,Substance,dose-dependent inhibition of hEGFR production
1,"5′-r(CACAGUGGAGCGAAUUCCUUUGGAA)-3′ (chain 2 UUCCAAAGGAAUUCGCUCCACUGUG; siRNA; RNA, backbone not given here) [hEGFR-25-1]",inhibited hEGFR expression in a dose-dependent manner; also recorded: dose-dependent inhibition
2,"5′-r(CGCAAAGUGUGUAACGGAAUAGGUA)-3′ (chain 2 UACCUAUUCCGUUACACACUUUGCG; siRNA; RNA, backbone not given here) [hEGFR-25-2]",inhibited hEGFR expression in a dose-dependent manner; also recorded: dose-dependent inhibition
